Data: patent US12552806B2, “Androgen receptor regulation by small molecule enantiomers” (University of Southern California, priority 2020, dated 2026)
Like-named read-outs stand apart in the source and are kept apart here.

Assays:
[1] = target: T1, AR (Rattus norvegicus, UniProt P15207); assay: AR binding, PolarScreen AR Competitor Assay (fluorescence polarization)
T1 construct: purchased Thermo Fisher Scientific
T1 sequence (P15207 646-902 limits assumed): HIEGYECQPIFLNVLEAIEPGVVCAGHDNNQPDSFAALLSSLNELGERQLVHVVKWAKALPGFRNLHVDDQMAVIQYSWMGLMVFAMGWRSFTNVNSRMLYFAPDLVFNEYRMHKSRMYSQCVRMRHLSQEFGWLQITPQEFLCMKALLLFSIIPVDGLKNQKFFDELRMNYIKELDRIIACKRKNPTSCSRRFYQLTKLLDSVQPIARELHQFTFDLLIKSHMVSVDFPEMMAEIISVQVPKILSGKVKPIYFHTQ
Description: AR Binding. Ligand binding was analyzed using the PolarScreen AR Competitor Assay Kit, Green, according to the manufacturer's instructions (Thermo Fisher Scientific). Fluorescence polarization was measured after a 4-h incubation using an EnVision 2103 Multilabel Plate Reader (PerkinElmer).

[2] = target: T2, AR T878A (Homo sapiens, UniProt P10275, T878A); assay: cell-based; format: cell-based
T2 construct: LNCaP cells expressing AR T878A; endogenous in cells; host or cells: LNCaP-luc (LNCaP stably carrying the Cignal Lenti AR Reporter)
T2 sequence (P10275 1-920 T878A): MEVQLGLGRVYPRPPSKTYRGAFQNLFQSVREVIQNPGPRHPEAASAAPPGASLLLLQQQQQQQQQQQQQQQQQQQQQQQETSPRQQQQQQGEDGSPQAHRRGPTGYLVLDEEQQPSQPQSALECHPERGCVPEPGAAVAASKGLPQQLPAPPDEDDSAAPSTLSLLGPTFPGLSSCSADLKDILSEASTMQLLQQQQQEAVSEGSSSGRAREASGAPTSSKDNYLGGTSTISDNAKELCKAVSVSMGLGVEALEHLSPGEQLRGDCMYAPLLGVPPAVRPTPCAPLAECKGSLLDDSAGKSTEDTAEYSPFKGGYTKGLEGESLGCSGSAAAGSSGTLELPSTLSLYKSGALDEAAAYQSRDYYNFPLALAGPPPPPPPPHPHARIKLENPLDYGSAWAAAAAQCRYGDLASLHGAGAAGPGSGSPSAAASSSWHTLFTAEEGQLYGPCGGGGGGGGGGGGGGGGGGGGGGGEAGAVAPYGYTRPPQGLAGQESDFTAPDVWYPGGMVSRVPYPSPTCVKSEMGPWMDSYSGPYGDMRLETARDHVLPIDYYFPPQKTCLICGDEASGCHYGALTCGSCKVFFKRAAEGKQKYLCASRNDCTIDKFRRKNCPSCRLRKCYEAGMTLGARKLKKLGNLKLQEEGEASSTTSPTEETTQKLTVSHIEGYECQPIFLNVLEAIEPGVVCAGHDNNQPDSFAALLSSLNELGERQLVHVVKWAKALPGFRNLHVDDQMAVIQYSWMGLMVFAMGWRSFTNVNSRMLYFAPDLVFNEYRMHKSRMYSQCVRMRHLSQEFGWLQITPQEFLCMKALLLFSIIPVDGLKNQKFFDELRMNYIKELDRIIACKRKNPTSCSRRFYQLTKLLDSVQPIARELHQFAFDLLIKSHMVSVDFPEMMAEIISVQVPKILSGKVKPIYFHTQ
Excerpt: We generated a LNCaP cell line stably expressing luciferase controlled by androgen response elements (ARE-luciferase).
Cell Culture and Treatments. The LNCaP cell line were obtained from ATCC, cultured in RPMI1640 (Corning) supplemented with 10% heat-inactivated GemCell bovine serum (Gemini Bio-Products) and Penicillin-Streptomycin (Gemini Bio-Products). Cell lines stably expressing ARE-luciferase (LNCaP-luc) was generated using Cignal Lenti AR Reporter (Qiagen) and was continuously cultured with 500 ng/mL Puromycin (Gibco) for positive selection. Cells were maintained at 37° C. in a humidified incubator with 5% carbon dioxide. All cell lines were authenticated using NIST approved short tandem repeat (STR) DNA profiling performed by the University of Arizona Genetics Core and routinely tested negative for mycoplasma.
Luciferase assay. LNCaP-luc cells were seeded in clear flat bottom white polystyrene 96-well plates (Corning) at a density of 12,000 cells/well. […] Dose-response curves were fit using the delta method and t-distribution (n=1). Compounds are tested up to 10 μM.

[3] = system: VCaP cells; assay: VCaP viability assay (CellTiter-Glo); format: cell-based; settings: Homo sapiens, VCaP
Description: PC3 and VCaP cell lines were obtained from ATCC and cultured as recommended. Generation and culture of PC3 GFP-AR cells were described previously (14). ARE-luciferase cells were generated using Cignal Lenti AR Reporter (Qiagen). Cell lines were authenticated using NIST-approved short tandem repeat DNA profiling and tested negative for mycoplasma. Drug treatments were conducted after overnight culture in phenol red-free media supplemented with charcoal:dextran stripped FBS.
Luminometer Assays. For ARE-luciferase, luciferase substrate was added to lysed cells after 24-h treatment. For viability, cells were lysed with CellTiter-Glo 3D Cell Viability Assay (Promega) after 6 d of treatment. Measurements were performed in 96-well plates (Corning) using a GloMax 96 Microplate Luminometer (Promega).

Compound | binding to AR in vitro, in words [1] | IC50 ([1]; printed inside the ED50 cell of Table 2, read-out: IC50 (No binding)) | ED50 [2] | Emax [2] | IC50 [3] | AR agonism / antagonism in LNCaP ARE-luciferase, in words [2] | EC50 [2] | Emax ([2]; LNCaP)
3-(4-acetylpiperazin-1-yl)-N-((3aR,4R,5R,7R,7aS)-2-(4-cyano-3-(trifluoromethyl)phenyl)-4,7-dimethyl-1,3-dioxooctahydro-1H-4,7-epoxyisoindol-5-yl)propenamide [EITM-1716] | did not bind AR | > 5 µM | No binding (IC50 > 5 μM) | No binding | – | – | – | –
C[C@]12O[C@](C)(C[C@H]1NC(=O)c1c[nH]c3ccccc13)[C@H]1C(=O)N(c3ccc(C#N)c(C(F)(F)F)c3)C(=O)[C@H]12 [(R)-1720] | – | – | – | – | 0.16 µM | – | – | –
CC(=O)c1cc(C(=O)N[C@@H]2C[C@@]3(C)O[C@]2(C)[C@@H]2C(=O)N(c4ccc(C#N)c(C(F)(F)F)c4)C(=O)[C@@H]23)n[nH]1 [EITM-1703, 5-acetyl-N-((3aR,4R,5R,7R,7aS)-2-(4-cyano-3-(trifluoromethyl)phenyl)-4,7-dimethyl-1,3-dioxooctahydro-1H-4,7-epoxyisoindol-5-yl)-1H-pyrazole-3-carboxamide] | – | – | – | – | – | robust antagonistic activities without notable agonism | 1.7 µM | 20%
CC(O)c1cc(C(=O)N[C@@H]2C[C@@]3(C)O[C@]2(C)[C@@H]2C(=O)N(c4ccc(C#N)c(C(F)(F)F)c4)C(=O)[C@@H]23)n[nH]1 (stereo partly drawn) [EITM-1704, N-((3aR,4R,5R,7R,7aS)-2-(4-cyano-3-(trifluoromethyl)phenyl)-4,7-dimethyl-1,3-dioxooctahydro-1H-4,7-epoxyisoindol-5-yl)-5-(1-hydroxyethyl)-1H-pyrazole-3-carboxamide] | – | – | – | – | – | robust antagonistic activities without notable agonism | 3.7 µM | 11%
CCS(=O)(=O)N[C@@H]1C[C@@]2(C)O[C@]1(C)[C@@H]1C(=O)N(c3ccc(C#N)c(C(F)(F)F)c3F)C(=O)[C@@H]12 [EITM-1705, N-((3aR,4R,5R,7R,7aS)-2-(4-cyano-2-fluoro-3-(trifluoromethyl)phenyl)-4,7-dimethyl-1,3-dioxooctahydro-1H-4,7-epoxyisoindol-5-yl)ethanesulfonamide] | – | – | agonist | agonist | – | displayed notable AR agonism | – | –
C[C@]12O[C@](C)(C[C@H]1n1cc(CCO)nn1)[C@H]1C(=O)N(c3ccc(C#N)c(C(F)(F)F)c3)C(=O)[C@H]12 [EITM-1706, 4-((3aR,4R,5R,7R,7 aS)-5-(4-(2-hydroxyethyl)-1H-1,2,3-triazol-1-yl)-4,7-dimethyl-1,3-dioxooctahydro-2H-4,7-epoxyisoindol-2-yl)-2-(trifluoromethyl)benzonitrile] | did not bind to AR | – | No binding | No binding | – | – | – | –
CCS(=O)(=O)Nc1ccc2c(c1)C(=O)N(c1ccc(C#N)c(C(F)(F)F)c1)C2=O [EITM-1708, N-(2-(4-cyano-3-(trifluoromethyl)phenyl)-1,3-dioxoisoindolin-5-yl)ethanesulfonamide] | did not bind to AR | – | No binding | No binding | – | – | – | –
C[C@]12O[C@](C)(C[C@H]1NC(=O)c1n[nH]c3ccccc13)[C@H]1C(=O)N(c3ccc(C#N)c(C(F)(F)F)c3)C(=O)[C@H]12 [EITM-1709, N-((3aR,4R,5R,7R,7 aS)-2-(4-cyano-3-(trifluoromethyl)phenyl)-4,7-dimethyl-1,3-dioxooctahydro-1H-4,7-epoxyisoindol-5-yl)-1H-indazole-3-carboxamide] | appeared to accommodate | – | – | – | – | – | 0.328 µM | 1%
C[C@]12O[C@](C)(C[C@H]1NC(=O)c1cc(-c3cccs3)[nH]n1)[C@H]1C(=O)N(c3ccc(C#N)c(C(F)(F)F)c3)C(=O)[C@H]12 [EITM-1710, N-((3aR,4R,5R,7R,7aS)-2-(4-cyano-3-(trifluoromethyl)phenyl)-4,7-dimethyl-1,3-dioxooctahydro-1H-4,7-epoxyisoindol-5-yl)-5-(thiophen-2-yl)-1H-pyrazole-3-carboxamide] | appeared to accommodate | – | – | – | – | – | 2.43 µM | 8%
C[C@]12O[C@](C)(C[C@H]1NC(=O)c1cc(-c3ccco3)[nH]n1)[C@H]1C(=O)N(c3ccc(C#N)c(C(F)(F)F)c3)C(=O)[C@H]12 [EITM-1711, N-((3aR,4R,5R,7R,7 aS)-2-(4-cyano-3-(trifluoromethyl)phenyl)-4,7-dimethyl-1,3-dioxooctahydro-1H-4,7-epoxyisoindol-5-yl)-5-(furan-2-yl)-1H-pyrazole-3-carboxamide] | appeared to accommodate | – | – | – | – | – | 0.535 µM | 1%
Cc1c(N2C(=O)[C@@H]3[C@H](C2=O)[C@@]2(C)C[C@@H](NC(=O)c4cc(C(C)O)[nH]n4)[C@]3(C)O2)ccc(C#N)c1C(F)(F)F (stereo partly drawn) [EITM-1712, N-((3aR,4R,5R,7R,7 aS)-2-(4-cyano-2-methyl-3-(trifluoromethyl)phenyl)-4,7-dimethyl-1,3-dioxooctahydro-1H-4,7-epoxyisoindol-5-yl)-5-(1-hydroxyethyl)-1H-pyrazole-3-carboxamide] | – | – | – | – | – | pure antagonists | 2.13 µM | 38%
CC(=O)N1CCC(C(=O)N[C@@H]2C[C@@]3(C)O[C@]2(C)[C@@H]2C(=O)N(c4ccc(C#N)c(C(F)(F)F)c4)C(=O)[C@@H]23)CC1 [EITM-1717, 1-acetyl-N-((3aR,4R,5R,7R,7aS)-2-(4-cyano-3-(trifluoromethyl)phenyl)-4,7-dimethyl-1,3-dioxooctahydro-1H-4,7-epoxyisoindol-5-yl)piperidine-4-carboxamide] | did not bind AR | – | No binding | No binding | – | – | – | –
